Data reported in the C3SDB collision cross section collection.

Details: [M+H]+; instrument: TW; calibrated with polyalanine and drug standards

| collision cross section (N2) [Å²] | Compound |
| --- | --- |
| 227 | COc1cccc2c1C(=O)c1c(O)c3c(c(O)c1C2=O)C[C@@](O)(C(=O)CO)C[C@@H]3O[C@H]1C[C@H](N)[C@H](O)[C@H](C)O1 [DOXORUBICIN] |
| 155.7 | OCC(O)CN1CCN(c2ccccc2)CC1 (stereo not given) [DROPROPIZINE] |
| 152.6 | Cn1c(=O)c2c(ncn2CC(O)CO)n(C)c1=O (stereo not given) [DYPHYLLINE] |
| 213.9 | CC1(C)[C@@H](O)CC[C@]2(C)[C@H]3C(=O)C=C4[C@@H]5C[C@@](C)(C(=O)O)CC[C@]5(C)CC[C@@]4(C)[C@]3(C)CC[C@@H]12 [ENOXOLONE] |
| 161.5 | Oc1cc(O)c2c(c1)O[C@H](c1ccc(O)c(O)c1)[C@H](O)C2 [EPICATECHIN] |
| 258.1 | CC[C@H]1OC(=O)[C@H](C)[C@@H](O[C@H]2C[C@@](C)(OC)[C@@H](O)[C@H](C)O2)[C@H](C)[C@@H](O[C@@H]2O[C@H](C)C[C@H](N(C)C)[C@H]2O)[C@](C)(O)C[C@@H](C)C(=O)[C@H](C)[C@@H](O)[C@]1(C)O [ERYTHROMYCIN] |
| 171 | CCCCC(=O)O[C@H]1CC[C@H]2[C@@H]3CCc4cc(O)ccc4[C@H]3CC[C@]12C [ESTRADIOL VALERATE] |
| 152.7 | CCOc1ccc2nc(S(N)(=O)=O)sc2c1 [ETHOXZOLAMIDE] |
| 181.4 | COc1c2ccoc2nc2c(OC)c(OCC(O)C(C)(C)O)ccc12 (stereo not given) [EVOXINE] |
| 190.5 | CC(C)OC(=O)C(C)(C)Oc1ccc(C(=O)c2ccc(Cl)cc2)cc1 [FENOFIBRATE] |
| 200.5 | CC1=C(/C=C/C(C)=C/C=C/C(C)=C/C(=O)Nc2ccc(O)cc2)C(C)(C)CCC1 [FENRETINIDE] |
| 134.3 | CCC(=O)c1c(O)cc(O)cc1O [FLOPROPIONE] |
| 189.2 | C[C@@H]1C[C@H]2[C@@H]3C[C@H](F)C4=CC(=O)C=C[C@]4(C)[C@@]3(F)[C@@H](O)C[C@]2(C)[C@@]1(O)C(=O)CO [FLUMETHASONE] |
| 229.9 | CC(=O)OCC(=O)[C@@]12OC(C)(C)O[C@@H]1C[C@H]1[C@@H]3C[C@H](F)C4=CC(=O)C=C[C@]4(C)[C@@]3(F)[C@@H](O)C[C@@]12C [FLUOCINONIDE] |
| 172.3 | O=C1OC2(c3ccc(O)cc3Oc3cc(O)ccc32)c2ccccc21 [FLUORESCEIN] |
| 174.5 | CNCCC(Oc1ccc(C(F)(F)F)cc1)c1ccccc1 (stereo not given) [FLUOXETINE] |
| 201.2 | CC1(C)O[C@@H]2C[C@H]3[C@@H]4C[C@H](F)C5=CC(=O)CC[C@]5(C)[C@H]4[C@@H](O)C[C@]3(C)[C@]2(C(=O)CO)O1 [FLURANDRENOLIDE] |
| 200.6 | CC(C)n1c(/C=C/[C@@H](O)C[C@@H](O)CC(=O)O)c(-c2ccc(F)cc2)c2ccccc21 [FLUVASTATIN] |
| 196.8 | Nc1nc(=O)c2nc(CNc3ccc(C(=O)N[C@@H](CCC(=O)O)C(=O)O)cc3)cnc2[nH]1 [FOLIC ACID] |

| collision cross section (N2) [Å²] | Compound |
| --- | --- |
| 245.7 | CC(C)=CCCC1(C)C=Cc2c(O)c3c(c(CC=C(C)C)c2O1)OC12C(=CCCC1C(C)(C)O[C@@]2(C/C=C(\C)C(=O)O)C(=O)O)C3=O (stereo not given in full) [GARCINOLIC ACID] |
| 205.7 | CC(=O)O[C@@H]1C[C@H]2C(C)(C)C(=O)C=C[C@]2(C)[C@H]2CC[C@@]3(C)[C@H](c4ccoc4)OC(=O)[C@H]4O[C@]43[C@@]21C [GEDUNIN] |
| 156.5 | O=c1c(-c2ccc(O)cc2)coc2cc(O)cc(O)c12 [GENISTEIN] |
| 187.3 | O=C(OCC(O)CO)c1ccccc1Nc1ccnc2cc(Cl)ccc12 (stereo not given) [GLAFENINE] |
| 349.1 | C[C@@H]1O[C@@H](O[C@H]2[C@H](O[C@H]3CC[C@@]4(C)[C@@H](CC[C@]5(C)[C@@H]4CC=C4[C@@H]6CC(C)(C)CC[C@]6(C(=O)O[C@@H]6O[C@H](CO[C@@H]7O[C@H](CO)[C@@H](O[C@@H]8O[C@@H](C)[C@H](O)[C@@H](O)[C@H]8O)[C@H](O)[C@H]7O)[C@@H](O)[C@H](O)[C@H]6O)CC[C@]45C)[C@]3(C)CO)OC[C@H](O)[C@@H]2O)[C@H](O)[C@H](O)[C@H]1O [HEDERACOSIDE C] |
| 162.5 | O=C1C=C2CC3(O)COc4c(ccc(O)c4O)C3=C2C=C1O (stereo not given) [HEMATEIN] |
| 157.7 | C/C=C1\[C@H]2C=C(C)C[C@]1(N)c1ccc(=O)[nH]c1C2 [HUPERZINE A] |
| 166.5 | O=c1c(-c2cc(O)c(O)c(O)c2)coc2cc(O)c(O)c(O)c12 [IRIGENOL] |
| 194.7 | CC(=O)OCC(=O)[C@@]1(O)CCC2C3CCC4=CC(=O)C=C[C@]4(C)[C@@]3(F)[C@@H](O)C[C@@]21C (stereo not given in full) [ISOFLUPREDNONE ACETATE] |
| 125.6 | NNC(=O)c1ccncc1 [ISONIAZID] |
| 146.5 | COc1c2ccoc2c(OC)c2oc(=O)ccc12 [ISOPIMPINELLIN] |
| 171.9 | COc1ccc(-c2coc3c(OC)c(OC)cc(O)c3c2=O)cc1 [ISOTECTORIGENIN, 7-METHYL ETHER] |
| 146.3 | CC1(C)C[C@@H]2C(=O)CC[C@H]3O[C@]3(C)CC[C@H]21 [KOBUSONE] |
| 162.1 | COc1ccc(-c2coc3cc(O)ccc3c2=O)c(O)c1O [KOPARIN] |
| 165.6 | COc1c(O)cc2c(-c3ccccc3)cc(=O)oc2c1OC [KUHLMANNIN] |
| 171.2 | C[C@@H]1CC[C@H]2[C@](C)(CO)[C@@H](O)CC[C@]2(C)[C@@]12CC[C@@](CO)(CCO)O2 [LAGOCHILIN] |
| 117.7 | Cc1occc(=O)c1O [LARIXINIC ACID] |
| 176.2 | C=C[C@@](C)(O)CCC1C(=C)C[C@H](O)C2C(C)(C)CCCC12C (stereo not given in full) [LARIXOL] |

Continued, compound first:

| Compound | collision cross section (N2) [Å²] |
| --- | --- |
| CC[C@H]1CN2CCc3cc(OC)c(OC)cc3[C@@H]2C[C@@H]1C[C@H]1NCCc2cc(OC)c(OC)cc21 [EMETINE] | 219.6 |
| CC(=O)Oc1cc(OC(C)=O)c2c(c1)O[C@H](c1ccc(OC(C)=O)c(OC(C)=O)c1)[C@H](OC(C)=O)C2 [EPICATECHIN PENTAACETATE] | 207.3 |
| C[C@]12CC[C@@H]3c4ccc(O)cc4CC[C@H]3[C@@H]1C[C@H](O)[C@@H]2O [EPIESTRIOL] | 153.6 |
| C[C@]12CC[C@H]3[C@@H](CCC4=CC(=O)CC[C@@]43C)[C@@H]1CC[C@H]2O [EPITESTOSTERONE] | 170.7 |
| CN1CC[C@@]2(C)c3cc(O)ccc3N(C)[C@@H]12 [ESEROLINE] | 149.1 |
| C=C(C)c1cc2cc(C(C)=O)c(O)cc2o1 [EUPARIN] | 143.2 |
| CCCCCCOc1ccccc1C(N)=O [EXALAMIDE] | 154.6 |
| C=C1C[C@@H]2[C@H](CC[C@]3(C)C(=O)CC[C@@H]23)[C@@]2(C)C=CC(=O)C=C12 [EXEMESTANE] | 171.1 |
| NC(N)=Nc1nc(CSCC/C(N)=N/S(N)(=O)=O)cs1 [FAMOTIDINE] | 167.2 |
| Nc1ccncc1 [FAMPRIDINE] | 117.8 |
| CC1CCc2cc(F)cc3c(=O)c(C(=O)O)cn1c23 (stereo not given) [FLUMEQUINE] | 149.8 |
| CC1(C)O[C@@H]2C[C@H]3[C@@H]4C[C@H](F)C5=CC(=O)C=C[C@]5(C)[C@@]4(F)[C@@H](O)C[C@]3(C)[C@]2(C(=O)CO)O1 [FLUOCINOLONE ACETONIDE] | 199.7 |
| NCC1(CC(=O)O)CCCCC1 [GABAPENTIN] | 138.6 |
| Cc1cnc(C(=O)NCCc2ccc(S(=O)(=O)NC(=O)NC3CCCCC3)cc2)cn1 [GLIPIZIDE] | 196.5 |
| COc1ccc2c(c1)=NC1=C(C)NCCC=21 [HARMALINE] | 146.2 |
| CC(=O)O[C@H]1CC[C@@]2(C)[C@@H](CC[C@@H]3[C@@H]2CC(=O)[C@]2(C)[C@@H]4[C@H](C[C@@H]32)O[C@]2(CC[C@@H](C)CO2)[C@H]4C)C1 [HECOGENIN ACETATE] | 223.4 |
| C=C1C(=O)O[C@@H]2C[C@@]3(C)CCC[C@H](C)C3=C[C@H]12 [HELENINE] | 149.5 |
| O=c1cc(-c2cc(O)c(O)c(O)c2)oc2cc(O)cc(O)c12 [HIERACIN] | 163.4 |
| COc1ccc2c(c1OC)C(=O)O[C@@H]2[C@H]1c2cc3c(cc2CCN1C)OCO3 [HYDRASTINE (1R, 9S)] | 186.3 |
| CC(=O)OCC(=O)[C@@]1(O)CC[C@H]2[C@@H]3CCC4=CC(=O)CC[C@]4(C)[C@H]3[C@@H](O)C[C@@]21C [HYDROCORTISONE ACETATE] | 196.1 |
| CN1[C@@H]2CC[C@H]1CC(OC(=O)[C@H](CO)c1ccccc1)C2 (stereo not given in full) [HYOSCYAMINE] | 169.7 |
| CC1Cc2ccccc2N1NC(=O)c1ccc(Cl)c(S(N)(=O)=O)c1 (stereo not given) [INDAPAMIDE] | 184.6 |
| COc1cc(O)ccc1C(C)=O [ISOPEONOL] | 128.6 |
| C=C(C)[C@H]1CN[C@H](C(=O)O)[C@H]1CC(=O)O [KAINIC ACID] | 144.2 |
| CCCCS(=N)(=O)CC[C@H](N)C(=O)O (stereo partly drawn) [L-BUTHIONINE SULFOXIMINE] | 146.1 |
| O=C(O)[C@H](O)[C@@H](O)[C@H](O[C@@H]1O[C@H](CO)[C@H](O)[C@H](O)[C@H]1O)[C@H](O)CO [LACTOBIONIC ACID] | 168.7 |

Same assay, conditions: [M+Na]+; instrument: TW; calibrated with polyalanine and drug standards

| collision cross section (N2) [Å²] | Compound |
| --- | --- |
| 170.7 | CS(=O)(=O)c1ccc([C@@H](O)[C@@H](CF)NC(=O)C(Cl)Cl)cc1 [FLORFENICOL] |
| 235.6 | CC(=O)O[C@H]1C[C@@]2(C)[C@@H](C[C@@H](O)[C@H]3[C@@]4(C)CC[C@@H](O)[C@@H](C)[C@@H]4CC[C@@]32C)/C1=C(\CCC=C(C)C)C(=O)O [FUSIDIC ACID] |
